Experimental data taken from patent US9162975B2, “Phenyl carbamate compounds for use in alleviating or treating pain” (Bio-Pharm Solutions Co., Ltd., priority 2011, dated 2015).

Experiments:
ICR mice = test: Hot-plate test; type: in vivo; details: withdrawal latency relative to vehicle control, 150 mg/kg po, hot plate 55±1° C.
Protocol: To examine the pain relief effect of the phenyl carbamate compounds, a hot-plate test was conducted in general pain animal model referring to Current Protocols in Neuroscience; Behavioral Neuroscience Unit 8.9.
ICR mice (male, 30-35 g; Orient Bio, Korea) were habituated before test in test room for 1 hour Animals were fasted 2 hr before administration of compounds. Each of Compound 1, 2, 3, 4, 5, 63, 65, and 67 was orally administered at the dose of 150 mg/kg, 10 ul/g, bw (n=7˜10/group). All compounds were dissolved in a vehicle of 30% (v/v) PEG 400 or 20% (v/v) Tween 80. The control group was treated the vehicle without compounds.
0.5 hr after the administration of compounds, the mice were put on a hot plate pre-heated to 55±1° C. (Hu, X. et al, 2008), and then, measured as the withdrawal latency (cut-off time: 30 sec) time until the point when each mouse was taking off a paw from the plate, shaking, licking a paw or hind leg, or jumping from the plate.

SNL model in rats = test: Antiallodynic activity on Chung model (SNL, spinal nerve ligation), von Frey; type: in vivo, Sprague-Dawley rats; details: Rattus norvegicus, po, 1 h
Protocol: Male Sprague-Dawley rats (200-220 g, Orient Bio, Korea) were habituated for 1 week before the experiment and allowed free access to food and water throughout the experimentation. Room temperature and humidity were maintained at 24±2° C. and 50±10%, respectively. Neuropathic surgery (SNL, Spinal nerve ligation) model was done as described in Kim and Chung (1992). Briefly, animal under gaseous anesthesia with isoflurane a 4:4 flow ratio of NO2. The left lumber spinal nerve L5 and L6 were isolated and tightly ligated with 4˜0 silk thread. The wound was treated with a gentamicin antibiotics solution (4 mg/kg, 4 ul/g, bw), and the wound muscle was closed with cat cut chrome 4/0 thread and skin was closed dafilon 4/0 tread. Sham controls were prepared in the same manner as the spinal nerves were exposed, but no ligated L5 and L6 nerves. But, vehicle controls were identical to SNL model, except for administration of vehicles.
Tactile sensitivity (Mechanical allodynia) was evaluated using von Frey monofilaments before and after treatment and animals were used withdrawal threshold value was less than 4 g. […] The tactile sensitivity for ipsilateral hind paw was measured using the up-and-down method (Dixon, 1980) with seven von Frey monofilaments (0.4, 1, 2, 4, 6, 8, and 15 g) to 3 trials. […] The 50% paw withdrawal threshold for each paw was calculated using the following formula: [Xth] log=[vFr] log+ky where [vFr] is the force of the last von Frey used, k=0.2249 which is the average interval (in log units) between the von Frey monofilaments, and y is a value that depends upon the pattern of withdrawal responses (Dixon, 1980).
All animals were fasted 18 h before the administration of the compounds. Antiallodynic effect of compounds of Examples 1, 63 and 65 were evaluated at the dose of 5, 10 and 30 mg/kg (n=5˜6), orally administrated in a volume of 5 ul/g, bw in a vehicle of 30% (v/v) PEG 400 (Examples 1 and 63) or 20% (v/v) Tween 80 (Example 65). […]

[1] = test system: CFA-induced pain model in rats; test: Antiallodynic activity on Complete Freund's Adjuvant (CFA)-induced inflammatory pain model, von Frey; type: in vivo, Sprague-Dawley rats; details: 0.5 hr, paw withdrawal threshold relative to sham
Protocol: Male, Sprague-Dawley rats (200-220 g, Nara Bio, Korea) were habituated for 1 week before surgery and allowed free access to food and water throughout the experimentation. Room temperature and humidity were maintained at 24±2° C. and 50±10%, respectively.
CFA-induced inflammatory pain was induced by the procedure of Nagakura et al. (2003) and Gregory P. et al. (2010) with minor modifications. CFA (sigma, USA) was injected in the right plantar with a 100 ul volume under gaseous anesthesia with isoflurane a 4:4 flow ratio of NO2. Sham controls were injected with 100 ul of saline and vehicle controls were identical to CFA infusion model, except for administration of vehicles.
Tactile sensitivity (Mechanical allodynia) was evaluated using von Frey monofilaments before and after treatment, and animals were used withdrawal threshold value was less than 4 g. One week after surgery, CFA-infused animals (n=4˜6), sham-operated animals (n=12), and vehicle-operated animals (n=17) were tested for tactile sensitivity with von Frey monofilaments 3 trials in each animal. All Animals were placed in a stainless steel mashed chamber and habituated for 30 min in the test box. The tactile sensitivity for ipsilateral hind paw was measured using the up-and-down method (Dixon, 1980) with seven von Frey monofilaments (0.4, 1, 2, 4, 6, 8, and 15 g) to 3 trials. […] The 50% paw withdrawal threshold for each paw was calculated using the following formula: [Xth] log=[vFr] log+ky where [vFr] is the force of the last von Frey used, k=0.2249 which is the average interval (in log units) between the von Frey monofilaments, and y is a value that depends upon the pattern of withdrawal responses (Dixon, 1980).
Antiallodynic effect of compound of Example 1 was evaluated at the dose of 10, 30 and 60 mg/kg (n=4˜6), intraperitoneally administrated in a volume of 5 ul/g bw in a vehicle of 30% (v/v) PEG. […]
The relative values compared to the sham (% control) were calculated and shown in Table 7 and FIG. 7, which show an antiallodynic effect of Compound 1 on CFA-induced pain model in rats.

C[C@H](OC(N)=O)[C@@H](O)c1ccccc1Cl [Example 1, 1-(2-chlorophenyl)-(S)-1-hydroxypropyl-(S)-2-carbamate]
Hot-plate test (150 mg/kg, 0.5 h, po) % Control (ICR mice): 135.7%
ED50 (SNL model in rats): 11.1 mg/kg
% Control (CFA-induced pain model) ([1]; dose 10 mg/kg intraperitoneally): 12.5%
% Control (CFA-induced pain model) ([1]; dose 30 mg/kg intraperitoneally): 40.0%
% Control (CFA-induced pain model) ([1]; dose 60 mg/kg intraperitoneally): 73.7%
